According to patent US9730937B2, “RAF kinase modulator compounds and methods of use thereof” (AMBIT BIOSCIENCES CORPORATION, priority 2008, dated 2017):
Counter-ions that a name gives are not always drawn. Like-named read-outs stand apart in the source and are kept apart here.

Key:
[1] = molecular target: mutant BRAF kinase (Homo sapiens (Human), UniProt P15056, V600E); details: read-out: BRAF V600E Kd, class symbols
[2] = molecular target: wild type BRAF kinase (Homo sapiens (Human), UniProt P15056); details: read-out: BRAF WT Kd, class symbols
Sequence of wild type BRAF kinase (P15056 whole entry): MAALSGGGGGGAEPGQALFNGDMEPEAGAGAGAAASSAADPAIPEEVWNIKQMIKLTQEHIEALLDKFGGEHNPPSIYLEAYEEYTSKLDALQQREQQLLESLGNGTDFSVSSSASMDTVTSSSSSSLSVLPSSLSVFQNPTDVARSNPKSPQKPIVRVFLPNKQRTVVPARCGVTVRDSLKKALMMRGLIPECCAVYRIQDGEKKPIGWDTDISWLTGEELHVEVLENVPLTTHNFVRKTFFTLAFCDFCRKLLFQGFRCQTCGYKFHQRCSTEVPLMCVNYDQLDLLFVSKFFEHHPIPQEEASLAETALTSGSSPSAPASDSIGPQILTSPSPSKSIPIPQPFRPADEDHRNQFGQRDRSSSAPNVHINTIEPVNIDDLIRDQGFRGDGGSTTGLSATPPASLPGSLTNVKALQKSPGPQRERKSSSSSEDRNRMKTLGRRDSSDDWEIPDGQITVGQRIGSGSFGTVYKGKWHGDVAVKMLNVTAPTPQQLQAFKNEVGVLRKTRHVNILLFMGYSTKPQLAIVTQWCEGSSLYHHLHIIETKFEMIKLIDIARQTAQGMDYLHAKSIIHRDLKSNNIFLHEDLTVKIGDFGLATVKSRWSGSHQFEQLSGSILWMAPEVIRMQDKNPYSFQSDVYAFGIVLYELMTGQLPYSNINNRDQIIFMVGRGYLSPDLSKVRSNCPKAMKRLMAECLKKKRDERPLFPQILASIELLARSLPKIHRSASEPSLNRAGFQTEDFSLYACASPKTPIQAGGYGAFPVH

[3] = system: panel of 290 distinct kinases (321 in the larger panel), excluding mutant variants; details: kinase selectivity score, class symbols
[4] = molecular target: RAF kinases (Homo sapiens (Human), UniProt P04049); details: read-out: RAF1 Kd, class symbols
Sequence of RAF kinases (P04049 whole entry): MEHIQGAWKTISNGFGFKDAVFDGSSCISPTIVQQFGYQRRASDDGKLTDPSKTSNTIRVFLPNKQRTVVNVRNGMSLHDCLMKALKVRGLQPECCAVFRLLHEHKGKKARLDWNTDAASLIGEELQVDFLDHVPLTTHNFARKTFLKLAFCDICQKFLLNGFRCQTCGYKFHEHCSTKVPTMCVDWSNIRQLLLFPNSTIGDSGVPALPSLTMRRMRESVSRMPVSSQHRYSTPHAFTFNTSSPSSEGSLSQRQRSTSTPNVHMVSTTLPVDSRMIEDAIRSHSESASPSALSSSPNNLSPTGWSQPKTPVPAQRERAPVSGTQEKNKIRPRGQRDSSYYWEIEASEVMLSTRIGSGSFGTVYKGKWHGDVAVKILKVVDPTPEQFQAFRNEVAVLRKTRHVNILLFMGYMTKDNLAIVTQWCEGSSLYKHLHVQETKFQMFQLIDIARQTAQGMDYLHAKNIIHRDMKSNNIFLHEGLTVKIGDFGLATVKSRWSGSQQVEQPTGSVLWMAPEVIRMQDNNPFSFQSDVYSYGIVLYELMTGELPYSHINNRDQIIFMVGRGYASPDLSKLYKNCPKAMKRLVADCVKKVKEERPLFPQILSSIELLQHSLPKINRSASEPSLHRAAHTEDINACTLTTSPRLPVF

[5] = value marked * (larger kinase panel)

Sequence of mutant BRAF kinase (P15056 whole entry V600E): as the sequence (P15056 whole entry) above, with V600E counted along it

| Structure (SMILES) | Kd [1] | Kd [2] | S35 ([3]; 290 distinct kinases) | Kd [4] | S35 [3, 5] |
| --- | --- | --- | --- | --- | --- |
| COc1cc2ncnc(Oc3cccc(NC(=O)Nc4cc(C(C)(C)C)on4)c3)c2cc1OC [Ex 1, 1-(5-tert-butylisoxazol-3-yl)-3-(3-(6,7-dimethoxyquinazolin-4-yloxy)phenyl)urea] | < 0.25 µM | > 1 µM | C (0.20 < C ≦ 0.40) | – | – |
| CCOc1cc2ncnc(Oc3cccc(NC(=O)Nc4cc(C(C)(C)C)on4)c3)c2cc1OC [Ex 6, 1-(5-tert-butylisoxazol-3-yl)-3-[3-(7-ethoxy-6-methoxyquinazolin-4-yloxy)phenyl]urea hydrochloride] | < 0.25 µM | > 1 µM | D (D > 0.40) | – | – |
| COc1cc2ncnc(Oc3cc(NC(=O)Nc4cc(C(C)(C)C)on4)ccc3F)c2cc1OC [Ex 9, 1-(5-tert-butylisoxazol-3-yl)-3-(3-(6,7-dimethoxyquinazolin-4-yloxy)-4-fluorophenyl)urea] | < 0.25 µM | > 1 µM | D (D > 0.40) | – | – |
| COc1cc2ncnc(Oc3cc(NC(=O)Nc4cc(C(C)(C)C)on4)ccc3Cl)c2cc1OC [Ex 10, 1-(5-tert-butylisoxazol-3-yl)-3-(4-chloro-3-(6,7-dimethoxyquinazolin-4-yloxy)phenyl)urea] | – | > 1 µM | C (0.20 < C ≦ 0.40) | > 1 µM | – |
| CCOc1cc2c(Oc3cccc(NC(=O)Nc4cc(C(C)(C)C)on4)c3)ncnc2cc1OC [Ex 11, 1-(5-tert-butylisoxazol-3-yl)-3-(3-(6-ethoxy-7-methoxyquinazolin-4-yloxy)phenyl)urea] | < 0.25 µM | > 1 µM | C (0.20 < C ≦ 0.40) | – | – |
| CCOc1cc2ncnc(Oc3cccc(NC(=O)Nc4cc(C(C)(C)C)on4)c3)c2cc1OCC [Ex 13, 1-(5-tert-butylisoxazol-3-yl)-3-[3-(6,7-diethoxyquinazolin-4-yloxy)phenyl]urea hydrochloride] | – | > 1 µM | C (0.20 < C ≦ 0.40) | > 1 µM | – |
| COc1cc2c(Oc3cccc(NC(=O)Nc4cc(C(C)(C)C)on4)c3)ncnc2cc1OCCCN1CCN(CCO)CC1 [Ex 30, 1-(5-tert-butylisoxazol-3-yl)-3-(3-(7-(3-(4-(2-hydroxyethyl)piperazin-1-yl)propoxy)-6-methoxyquinazolin-4-yloxy)phenyl)urea] | < 0.25 µM | < 0.25 µM | D (D > 0.40) | – | – |
| COCCOc1ccc2ncnc(Oc3cccc(NC(=O)Nc4cc(C(C)(C)C)on4)c3)c2c1 [Ex 40, 1-(5-tert-butylisoxazol-3-yl)-3-(3-(6-(2-methoxyethoxy)quinazolin-4-yloxy)phenyl)urea] | < 0.25 µM | > 1 µM | C (0.20 < C ≦ 0.40) | – | – |
| CC(C)(C)c1cc(NC(=O)Nc2cccc(Sc3ncnc4cc(F)c(F)cc34)c2)no1 [Ex 47, 1-(5-tert-butylisoxazol-3-yl)-3-(3-(6,7-difluoroquinazolin-4-ylthio)phenyl)urea] | – | > 1 µM | A (A ≦ 0.10) | > 1 µM | – |
| COc1ccc2c(Sc3cccc(NC(=O)Nc4cc(C(C)(C)C)on4)c3)ncnc2c1 [Ex 48, 1-(5-tert-butylisoxazol-3-yl)-3-(3-(7-methoxyquinazolin-4-ylthio)phenyl)urea] | – | > 1 µM | C (0.20 < C ≦ 0.40) | > 1 µM | – |
| CCOc1cc2ncnc(Sc3cccc(NC(=O)Nc4cc(C(C)(C)C)on4)c3)c2cc1OCC [Ex 51, 1-(5-tert-butylisoxazol-3-yl)-3-[3-(6,7-diethoxyquinazolin-4-ylthio)phenyl]urea] | – | > 1 µM | C (0.20 < C ≦ 0.40) | > 1 µM | – |
| CC(C)(C)c1cc(NC(=O)Nc2cccc(Sc3ncnc4cc5c(cc34)OCCO5)c2)no1 [Ex 54, 1-(5-tert-butylisoxazol-3-yl)-3-[3-(7,8-dihydro-[1,4]dioxino[2,3-g]quinazolin-4-ylthio)phenyl]urea hydrochloride] | – | > 1 µM | C (0.20 < C ≦ 0.40) | > 1 µM | – |
| COc1cc2ncnc(Sc3cccc(NC(=O)Nc4cc(C(C)(C)C)on4)c3)c2cc1OCCN1CCCCC1 [Ex 65, 1-(5-tert-butylisoxazol-3-yl)-3-(3-(7-methoxy-6-(2-(piperidin-1-yl)ethoxy)quinazolin-4-ylthio)phenyl)urea] | < 0.25 µM | > 1 µM | C (0.20 < C ≦ 0.40) | – | – |
| COc1cc(OC2CCOCC2)c2c(Oc3cccc(NC(=O)Nc4cc(C(C)(C)C)on4)c3)ncnc2c1 [Ex 94, 1-(5-tert-butylisoxazol-3-yl)-3-{3-[7-methoxy-5-(tetrahydro-2H-pyran-4-yloxy)quinazolin-4-yloxy]phenyl}urea] | – | > 1 µM | C (0.20 < C ≦ 0.40) | – | – |
| COc1cc2c(Oc3cccc(NC(=O)Nc4cc(C(C)(C)C)on4)c3)ncnc2cc1O[C@H]1CCN(CC(F)F)C1 [Ex 103, (S)-1-(5-tert-butylisoxazol-3-yl)-3-(3-{7-[1-(2,2-difluoroethyl)pyrrolidin-3-yloxy]-6-methoxyquinazolin-4-yloxy}phenyl)urea] | – | > 1 µM | – | > 1 µM | C* (0.20 < C ≦ 0.40) |
| COc1cc2ncnc(Oc3cccc(NC(=O)Nc4cc(C(C)(C)C)on4)c3)c2cc1O[C@H]1CCN(C(=O)OC(C)(C)C)C1 [Ex 108, (S)-tert-butyl 3-(4-(3-(3-(5-tert-butylisoxazole-3-yl)ureido)phenoxy)-7-methoxyquinazolin-6-yloxy)pyrrolidine-1-carboxylate] | – | > 1 µM | C (0.20 < C ≦ 0.40) | > 1 µM | – |
| COc1cc2ncnc(Oc3cccc(NC(=O)Nc4cc(C5CCOCC5)no4)c3)c2cc1OC [Ex 123, 1-(3-(6,7-dimethoxyquinazolin-4-yloxy)phenyl)-3-(3-(tetrahydro-2H-pyran-4-yl)isoxazol-5-yl)urea] | – | > 1 µM | B (0.10 < B ≦ 0.20) | – | – |
| COCCOc1cc(NC(=O)Nc2cccc(Oc3ncnc4cc(OC)c(OC)cc34)c2)cc(C(F)(F)F)c1 [Ex 129, 1-(3-(6,7-dimethoxyquinazolin-4-yloxy)phenyl)-3-(3-(2-methoxyethoxy)-5-(trifluoromethyl)phenyl)urea] | – | > 1 µM | B (0.10 < B ≦ 0.20) | – | – |
| COCC(C)(C)c1cc(NC(=O)Nc2cccc(Oc3ncnc4cc(OC)c(OC)cc34)c2)no1 [Ex 130, 1-(3-(6,7-dimethoxyquinazolin-4-yloxy)phenyl)-3-(5-(1-methoxy-2-methylpropan-2-yl)isoxazol-3-yl)urea] | – | > 1 µM | C (0.20 < C ≦ 0.40) | > 1 µM | – |
| COc1cc2ncnc(Oc3cccc(NC(=O)Nc4cc(Cl)cc(C(F)(F)F)c4)c3)c2cc1OC [Ex 140, 1-(3-chloro-5-(trifluoromethyl)phenyl)-3-(3-(6,7-dimethoxyquinazolin-4-yloxy)phenyl)urea] | – | > 1 µM | B (0.10 < B ≦ 0.20) | – | – |
| COc1cc2ncnc(Oc3cccc(NC(=O)Nc4cc(C(F)(F)F)ccc4Cl)c3)c2cc1OC [Ex 142, 1-(2-chloro-5-(trifluoromethyl)phenyl)-3-(3-(6,7-dimethoxyquinazolin-4-yloxy)phenyl)urea] | – | > 1 µM | B (0.10 < B ≦ 0.20) | – | – |
| COc1cc2ncnc(Oc3cccc(NC(=O)Nc4nccc(C(F)(F)F)n4)c3)c2cc1OC [Ex 143, 1-(3-(6,7-dimethoxyquinazolin-4-yloxy)phenyl)-3-(4-(trifluoromethyl)pyrimidin-2-yl)urea] | – | > 1 µM | A (A ≦ 0.10) | – | – |
| COCCOc1cc(NC(=O)Nc2cccc(Oc3ncnc4cc(OC)c(OC)cc34)c2)ccc1C(F)(F)F [Ex 147, 1-(3-(6,7-dimethoxyquinazolin-4-yloxy)phenyl)-3-(3-(2-methoxyethoxy)-4-(trifluoromethyl)phenyl)urea] | – | > 1 µM | – | – | B* (0.10 < B ≦ 0.20) |
| COCCOc1cc(NC(=O)Nc2cccc(Sc3ncnc4cc(OC)c(OC)cc34)c2)ccc1C(F)(F)F [Ex 148, 1-(3-(6,7-dimethoxyquinazolin-4-ylthio)phenyl)-3-(3-(2-methoxyethoxy)-4-(trifluoromethyl)phenyl)urea] | – | > 1 µM | – | > 1 µM | B* (0.10 < B ≦ 0.20) |
| COc1cc2ncnc(Oc3cccc(NC(=O)Nc4cc(CN5CCOCC5)cc(C(F)(F)F)c4)c3)c2cc1OC [Ex 151, 1-(3-(6,7-dimethoxyquinazolin-4-yloxy)phenyl)-3-(3-(morpholinomethyl)-5-(trifluoromethyl)phenyl)urea] | < 0.25 µM | > 1 µM | – | – | C* (0.20 < C ≦ 0.40) |
| COc1cc2ncnc(Oc3cccc(NC(=O)Nc4cc(C(C)(C)C)nn4C)c3)c2cc1OC [Ex 158, 1-(3-tert-butyl-1-methyl-1H-pyrazol-5-yl)-3-(3-(6,7-dimethoxyquinazolin-4-yloxy)phenyl)urea] | < 0.25 µM | > 1 µM | – | – | C* (0.20 < C ≦ 0.40) |
| COc1cc2ncnc(Oc3cccc(NC(=O)Nc4cc(C5CCCC5)no4)c3)c2cc1OC [Ex 163, 1-(3-cyclopentylisoxazol-5-yl)-3-(3-(6,7-dimethoxyquinazolin-4-yloxy)phenyl)urea] | – | > 1 µM | – | – | C* (0.20 < C ≦ 0.40) |
| COc1cc2ncnc(Sc3cccc(NC(=O)Nc4ccc(C(C)(C)C)cc4)c3)c2cc1OC [Ex 174, 1-(4-tert-butylphenyl)-3-(3-(6,7-dimethoxyquinazolin-4-ylthio)phenyl)urea] | – | > 1 µM | C (0.20 < C ≦ 0.40) | – | – |
| COc1cc2ncnc(Sc3cccc(NC(=O)Nc4ccc(C(F)(F)F)c(F)c4)c3)c2cc1OC [Ex 188, 1-(3-(6,7-dimethoxyquinazolin-4-ylthio)phenyl)-3-(3-fluoro-4-(trifluoromethyl)phenyl)urea] | – | > 1 µM | – | – | B* (0.10 < B ≦ 0.20) |
| COc1cc2ncnc(Sc3cccc(NC(=O)Nc4cc(CN5CCOCC5)cc(C(F)(F)F)c4)c3)c2cc1OC [Ex 189, 1-(3-(6,7-dimethoxyquinazolin-4-ylthio)phenyl)-3-(3-(morpholinomethyl)-5-(trifluoromethyl)phenyl)urea] | – | > 1 µM | – | – | C* (0.20 < C ≦ 0.40) |
